“Also recorded” adds a separate entry of the source.

For one experiment, the system named is α1,2,6 GABAΑ receptors. Description: FMP assay, α1,2,6 receptors (summary). The class given is cell-based, human. The conditions noted are these: range over subtypes; read-out: potency (IC50) at α1,2,6 receptors. As to the method: HEK293 cells were maintained in DMEM containing GlutaMAX-I, supplemented with 10% FBS and 1% penicillin-streptomycin and incubated at 37 °C and a humidity of 5% CO2. For expression of δ-containing GABAΑ receptors, a HEK293 Flp-In^ΤΜ cell line stably expressing the human GABAΑ δ-subunits (referred to as δ-HEK) was used and the γ-containing subtypes was expressed in a background HEK293 Flp-In^ΤΜ cell line stably expressing the G-protein coupled peptide receptor NPBWR2 (referred to as HEK background)[26], both positively selected for using 200 μg/mL hygromycin B. α1β2γ2 receptors were stably expressed in a HEK293 cell line maintained as above but with no selection (gift from Marianne L. Jensen, Neurosearch). […]
The FMP assay was performed as previously described with a few modifications. […] Data was obtained as changes in fluorescence units (∆RFU) by measuring emission at 560 nm caused by excitation at 530 nm. […]
Data obtained in the FMP assay are given as relative changes in fluorescence units (ΔRFU) by subtracting the average of the baseline fluorescence signal from the peak fluorescence signal after compound addition. […]

In a further experiment the target is T1, human BGT1 (Homo sapiens, UniProt P48065).
T1 construct: expressed in transfected cells; host or cells: δ-HEK cells, transient transfection (pcDNA5/FRT)
T1 sequence (P48065 1-614): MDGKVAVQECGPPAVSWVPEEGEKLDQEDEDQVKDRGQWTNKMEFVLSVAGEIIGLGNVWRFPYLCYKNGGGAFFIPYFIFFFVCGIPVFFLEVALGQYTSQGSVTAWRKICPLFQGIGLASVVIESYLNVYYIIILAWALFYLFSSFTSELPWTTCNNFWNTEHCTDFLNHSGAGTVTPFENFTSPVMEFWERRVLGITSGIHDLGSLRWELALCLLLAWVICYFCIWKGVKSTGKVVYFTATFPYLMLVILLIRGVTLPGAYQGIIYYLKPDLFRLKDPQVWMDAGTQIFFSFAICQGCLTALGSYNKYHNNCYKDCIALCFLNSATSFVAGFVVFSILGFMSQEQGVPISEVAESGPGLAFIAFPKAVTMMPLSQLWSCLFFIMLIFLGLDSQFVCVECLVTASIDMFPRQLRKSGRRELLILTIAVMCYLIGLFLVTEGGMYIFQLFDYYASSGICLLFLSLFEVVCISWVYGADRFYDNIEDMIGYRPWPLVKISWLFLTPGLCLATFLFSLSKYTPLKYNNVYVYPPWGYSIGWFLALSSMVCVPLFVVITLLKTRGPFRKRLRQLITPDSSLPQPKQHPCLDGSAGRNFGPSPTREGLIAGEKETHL
The experiment in a line: Fluorescence interference control: BGT1-mediated GABA uptake in the FMP assay. The class given is cell-based. Particulars: 110 μM GABA uptake by BGT1 in δ-HEK cells; 2027 at 30, 10, 3 μM. From the text: To express recombinant GABAΑ receptors human α1, α2, α3, α5, α6, β2, γ2 (pcDNA3.1/Zeo) and α4, β1 (pUNIV)[26] subunit cDNA were transiently transfected into either δ-HEK or HEK background cells. δ-HEK cells were transfected with α- and β-subunits in a 1:1 ration whereas HEK background cells were transfected with α-, β- and γ-subunits in a 1:1:2 ratio. Human BGT1 (pcDNA5/FRT)[43] was transiently transfected into the δ-HEK cell line. δ-HEK cells transfected for whole-cell patch-clamp recordings were co-transfected with green fluorescent protein (GFP) as well as α- and β-subunits in a 0.5:1:1 ratio (0.8 μg + 1.6 μg + 1.6 μg in a 6 cm dish) in order to identify transfected cells. The transfection was carried out using Polyfect as transfection reagent according to the manufactures protocol expect for using half the recommended volume of Polyfect.
assay (perf ormed essentially as previously described in methods section and based on Al-Khawaja et al.).
in d-HEK cells was not decreased/quenched by 2027 in any of the tested concentrations. Data are shown as
means ± SD f rom a representative expe riment perf orme d in triplicate (n=2).
BGT1 expressed in HEK-δ cells

The term IC50 denotes the midpoint of a concentration-inhibition curve. In the case of `O=C(Nc1cccc(C(=O)N2CCC3(CCNCC3)CC2)c1)c1cccs1` [compound 018, N-(3-(3,9-diazaspiro[5.5]undecane-3-carbonyl)phenyl)thiophene-2-carboxamide], in the experiment on α1,2,6 GABAΑ receptors, the IC50 lay in the range of 240 to 790 nM.

Turning to `CC(=O)Nc1cccc(C(=O)N2CCC3(CCNCC3)CC2)c1` [compound 2027, N-(3-(3,9-diazaspiro[5.5]undecane-3-carbonyl)phenyl)acetamide], at human BGT1, the “interference with / quenching of the fluorescence signal” value is “does not quench; also recorded: do not interfere”.

The values above are taken from paper PMC7308271, “Discovery of a new class of orthosteric antagonists with nanomolar potency at extrasynaptic GABAA receptors” (Scientific Reports, 2020).
